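The compound was tested at five concentrations on cells cultured in 96-well plates, with a 48-hour exposure period. GI50 = concentration required for 50% inhibition of growth. TGI: total growth inhibition.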 Bounds are passed on as bounds.

Among the test systems are DMS 114 small cell lung; HOP-18 NSCLC; LXFL 529 NSCLC; M19-MEL melanoma; RXF-631 renal; SNB-78 CNS; XF 498 CNS; P388 leukemia; P388/ADR leukemia; SN12K1 renal.
Holding throughout (assay): NCI tumour cell line growth inhibition, 48 h

In the case of `Clc1c(Cl)c2c(Cl)c(Cl)c1C[P+](c1ccccc1)(c1ccccc1)CC[P+](c1ccccc1)(c1ccccc1)Cc1c(Cl)c(Cl)c(c(Cl)c1Cl)C[P+](c1ccccc1)(c1ccccc1)CC[P+](c1ccccc1)(c1ccccc1)C2`, the TGI came to 3.7 µM with DMS 114 small cell lung; 20.6 µM in the assay on HOP-18 NSCLC; 8.12 µM in the assay on LXFL 529 NSCLC; 9.91 µM in the assay on M19-MEL melanoma; 23.7 µM in the assay with RXF-631 renal; 18.9 µM in the assay on SNB-78 CNS.

Consider `CC(C)n1c2c([n+](C)c1/C=C/c1ccccc1)C(=O)c1ccccc1C2=O`, for which the TGI in the assay on DMS 114 small cell lung amounted to 0.0439 µM; with LXFL 529 NSCLC, 0.788 µM; in the assay with M19-MEL melanoma, 0.321 µM; with SNB-78 CNS it was 0.413 µM.

`CC(C)OP(=O)(OC(C)C)C(=Nc1ccccc1)NNc1ccc([N+](=O)[O-])cc1`: the TGI in the assay with DMS 114 small cell lung is 69.5 µM; in the assay with LXFL 529 NSCLC, above 100 µM; in the assay on M19-MEL melanoma it was above 100 µM; with SNB-78 CNS, 43.1 µM; in the assay on XF 498 CNS, 61 µM.

Regarding `O=C(O)CC/C(=N\Nc1nsc2ccccc12)c1ccc(Cl)cc1`, the TGI in the assay with DMS 114 small cell lung was above 100 µM; with HOP-18 NSCLC, 52 µM; in the assay with LXFL 529 NSCLC, 41.1 µM; with M19-MEL melanoma, above 100 µM; in the assay with SNB-78 CNS, above 100 µM.

On to `O=[N+]([O-])O.[Ga]`, for which the GI50 with HOP-18 NSCLC was 5210 µM; in the assay on P388 leukemia, 1680 µM; with P388/ADR leukemia, 712 µM; in the assay on SN12K1 renal, 1210 µM; in the assay on SNB-78 CNS, above 4220 µM. Further, the TGI is above 9360 µM in the assay on HOP-18 NSCLC; above 10000 µM in the assay on P388 leukemia; above 3030 µM in the assay on P388/ADR leukemia; 6000 µM in the assay with SN12K1 renal; above 4980 µM in the assay with SNB-78 CNS.

The values are drawn from PubChem BioAssay (NCI).
